Test results: ChEMBL document CHEMBL1201862, “PubChem BioAssay data set” (2004)
Active and inactive are the calls of the source.

Experiments:
Streptococcus = assay: Group A Streptococcus viability loss, dose response, counter-screen for streptokinase expression inhibitor project, luminescence, BacTiterGlo (AID 1915); format: functional, organism-based;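 also: potency for reduction of bacterial viability or growth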
[1] = test system: Streptococcus sp. 'group A'; assay: growth inhibition of control SK(-) GAS strain, dose response, counter-screen for streptokinase expression inhibitor project, luminescence, kanamycin, BacTiterGlo, confirmation (AID 1900); format: functional, organism-based
cells = format: functional
Escherichia coli = assay: microbe, parasite or virus in culture
A-375 [2] = assay: MITF: Counter assay: A375 proliferation Measured in Cell-Based System Using Plate Reader - 2084-03_Inhibitor_Dose_DryPowder_Activity. [Related pubchem assays (depositor defined):AID488944]; format: functional; details: Homo sapiens
Vero [3] = assay: cells; format: functional; details: Chlorocebus sabaeus
A-375 [4] = assay: A375 melanoma cell viability reduction, dose response, counter-screen for MITF modulator project, cherry-pick samples, set 2 (AID 540335); format: functional, cell-based; details: Homo sapiens
HEK293 [5] = assay: cells; details: Homo sapiens
HEK293 [6] = assay: cells; details: Homo sapiens; remark: listed apart in the source
[7] = biological target: T1, Type-1 angiotensin II receptor (Homo sapiens, UniProt P30556); assay: AT1 receptor antagonists, dose response, selectivity assay for APJ receptor antagonist project, cell-based, uHTS hits (AID 463214); format: functional;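 also: antagonist potency against angiotensin II stimulated AT1 response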
T1 sequence (P30556 whole entry): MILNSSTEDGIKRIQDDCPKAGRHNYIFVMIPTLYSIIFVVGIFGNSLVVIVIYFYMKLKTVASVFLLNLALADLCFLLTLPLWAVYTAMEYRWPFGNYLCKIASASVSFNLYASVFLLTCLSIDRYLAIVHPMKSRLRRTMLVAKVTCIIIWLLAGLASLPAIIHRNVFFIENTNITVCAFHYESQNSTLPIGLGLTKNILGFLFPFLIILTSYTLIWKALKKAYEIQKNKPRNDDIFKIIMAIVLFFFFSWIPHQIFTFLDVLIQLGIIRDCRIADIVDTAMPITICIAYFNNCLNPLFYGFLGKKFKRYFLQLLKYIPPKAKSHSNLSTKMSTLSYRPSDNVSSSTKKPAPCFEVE

Beta-galactosidase = Beta-galactosidase (Escherichia coli, UniProt Q8VNN2); assay: PubChem AID 485352; format: functional
Sequence of Beta-galactosidase (Q8VNN2 whole entry): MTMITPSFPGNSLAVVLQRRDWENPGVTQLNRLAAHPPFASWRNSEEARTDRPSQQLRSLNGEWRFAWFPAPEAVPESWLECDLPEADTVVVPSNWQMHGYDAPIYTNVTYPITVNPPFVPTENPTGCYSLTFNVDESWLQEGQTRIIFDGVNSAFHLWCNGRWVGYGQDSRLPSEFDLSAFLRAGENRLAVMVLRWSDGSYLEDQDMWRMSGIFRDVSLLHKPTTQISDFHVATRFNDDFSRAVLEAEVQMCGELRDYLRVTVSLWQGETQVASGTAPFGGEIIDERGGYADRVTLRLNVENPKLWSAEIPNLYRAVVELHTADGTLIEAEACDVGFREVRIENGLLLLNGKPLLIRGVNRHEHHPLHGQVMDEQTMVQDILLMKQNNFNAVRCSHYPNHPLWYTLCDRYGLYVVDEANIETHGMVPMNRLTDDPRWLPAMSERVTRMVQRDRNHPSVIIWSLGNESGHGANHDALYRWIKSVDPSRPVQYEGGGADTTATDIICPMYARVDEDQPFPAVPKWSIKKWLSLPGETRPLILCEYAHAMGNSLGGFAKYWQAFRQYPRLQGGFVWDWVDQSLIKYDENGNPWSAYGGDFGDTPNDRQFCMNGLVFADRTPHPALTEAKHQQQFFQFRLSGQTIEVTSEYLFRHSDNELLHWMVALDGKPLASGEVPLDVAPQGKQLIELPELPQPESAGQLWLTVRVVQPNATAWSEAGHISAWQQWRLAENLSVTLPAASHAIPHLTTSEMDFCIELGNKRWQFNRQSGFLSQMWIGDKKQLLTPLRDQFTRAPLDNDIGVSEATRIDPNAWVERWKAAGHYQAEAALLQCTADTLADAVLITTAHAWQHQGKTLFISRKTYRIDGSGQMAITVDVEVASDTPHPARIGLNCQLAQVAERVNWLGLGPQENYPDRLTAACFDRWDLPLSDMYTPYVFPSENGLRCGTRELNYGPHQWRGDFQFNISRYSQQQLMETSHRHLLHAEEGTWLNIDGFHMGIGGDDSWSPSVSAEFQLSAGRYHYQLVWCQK

CAAX prenyl protease 2 = CAAX prenyl protease 2 (Homo sapiens, UniProt Q9Y256); assay: human Rce1 protease inhibitors, dose response, biochemical, yeast membranes, quenched-peptide fluorescence, cherry-pick (AID 588849)
Sequence of CAAX prenyl protease 2 (Q9Y256 whole entry): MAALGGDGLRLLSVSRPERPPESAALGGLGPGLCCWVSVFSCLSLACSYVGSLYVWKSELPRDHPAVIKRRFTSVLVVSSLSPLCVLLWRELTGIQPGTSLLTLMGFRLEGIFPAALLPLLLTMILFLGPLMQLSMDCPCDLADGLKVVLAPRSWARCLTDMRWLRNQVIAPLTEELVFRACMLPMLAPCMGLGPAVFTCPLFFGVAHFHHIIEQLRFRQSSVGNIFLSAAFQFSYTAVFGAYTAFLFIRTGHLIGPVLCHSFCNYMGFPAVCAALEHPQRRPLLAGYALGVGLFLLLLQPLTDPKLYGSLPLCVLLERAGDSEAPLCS

Trypsin = Trypsin (Sus scrofa, UniProt P00761); assay: porcine trypsin inhibitors, dose response, selectivity assay for Rce1 protease inhibitor project, biochemical, quenched peptide fluorescence, cherry-pick (AID 488789)
Sequence of Trypsin (P00761 whole entry): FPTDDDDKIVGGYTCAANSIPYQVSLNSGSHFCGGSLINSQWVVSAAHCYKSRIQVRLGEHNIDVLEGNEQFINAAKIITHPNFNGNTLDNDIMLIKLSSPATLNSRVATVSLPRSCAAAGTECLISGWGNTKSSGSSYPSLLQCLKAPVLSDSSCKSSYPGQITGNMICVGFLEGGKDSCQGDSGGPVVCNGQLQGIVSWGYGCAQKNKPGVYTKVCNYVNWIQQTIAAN

[8] = cytotoxicity toward NIH3T3 fibroblasts, dose response, counter-screen, cell-based, ATP luminescence, mouse fibroblasts (AID 2010); format: functional;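 also: cells exposed to compound for about 90 hours before reading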
[9] = inhibitors of intracellular T. cruzi replication, confirmation, NIH3T3 host cells, beta-gal luminescence (AID 2044); format: functional, cell-based;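 also: intracellular parasites grown in NIH/3T3 mouse fibroblasts as host cells; luminescent beta-galactosidase reporter signal from transgenic T. cruzi replicating inside host cells; inhibitors lower the luminescence signal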
Vero [10] = assay: cells; format: functional, cell-based; details: Chlorocebus sabaeus
INS1 = assay: beta cell apoptosis inhibitors, cytokine rescue, dose response, luminescence, retest (AID 449756); format: functional, cell-based; details: Rattus norvegicus;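 also: cell death triggered by IL-1 beta plus TNF-alpha plus IFN-gamma mixture; protective hits raise ATP signal compared with cytokine alone wells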
[11] = cytotoxicity in HEK-293T cells, dose response, cytotoxicity control for BCR NF-kB inhibitor project, luminescence, B-cell screen hits (AID 489021); format: functional, cell-based;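 also: HEK-293T cells carrying an NF-kB luciferase reporter; cells exposed to compound for about 14 hours before viability readout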
[12] = cytotoxicity in HMLE control line with eGFP shRNA, dose response, counter-screen for HMLE_sh_ECad selective toxicity project, cell-based, HMLE_sh_eGFP, luminescence (AID 463074); format: functional, Homo sapiens;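 also: HMLE human mammary epithelial cells expressing control shRNA against eGFP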
Vero [13] = assay: host cell cytotoxicity of antiviral hits, dose response, cytotoxicity control for West Nile virus antiviral project, secondary assay (AID 1650); format: functional; details: Chlorocebus sabaeus
[14] = biological target: Microphthalmia-associated transcription factor (Homo sapiens, UniProt O75030); assay: TRPM1 promoter luciferase signal decrease, dose response, MITF inhibitor project, cell-based, SK-MEL-5, cherry-picked, set 3 (AID 493073); format: functional
Sequence of Microphthalmia-associated transcription factor (O75030 whole entry): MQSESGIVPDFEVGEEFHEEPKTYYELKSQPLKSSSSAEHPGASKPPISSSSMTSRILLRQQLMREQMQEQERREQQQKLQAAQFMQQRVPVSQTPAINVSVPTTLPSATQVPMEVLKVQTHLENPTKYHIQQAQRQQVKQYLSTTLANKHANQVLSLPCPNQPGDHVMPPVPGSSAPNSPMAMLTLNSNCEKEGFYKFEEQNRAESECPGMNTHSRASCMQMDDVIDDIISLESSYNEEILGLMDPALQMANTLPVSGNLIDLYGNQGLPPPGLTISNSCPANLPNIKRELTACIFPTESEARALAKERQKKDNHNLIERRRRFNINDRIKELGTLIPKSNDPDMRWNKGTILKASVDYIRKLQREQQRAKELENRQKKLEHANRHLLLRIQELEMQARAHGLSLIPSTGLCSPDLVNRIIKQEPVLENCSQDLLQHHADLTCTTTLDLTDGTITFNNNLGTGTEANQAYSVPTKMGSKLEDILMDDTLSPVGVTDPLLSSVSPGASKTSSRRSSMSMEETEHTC

[15] = Luminescence Cell-Based Dose Retest to Confirm Inhibitors of Cancer Stem Cells. [Related pubchem assays (depositor defined):AID2717, AID2721]; format: functional; details: Homo sapiens
[16] = cytotoxicity in MIN6 insulinoma cells, dose response, cytotoxicity control, cell-based, mouse insulinoma (AID 2122); format: functional;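 also: confirmatory high-throughput counterscreen run to flag cytotoxic compounds; mouse MIN-6 beta cells carrying an insulin promoter eGFP reporter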
[17] = C. albicans growth with fluconazole, confirmation, fluorescence, retest (AID 2467); format: functional, cell-based
[18] = insulin promoter down-regulators in MIN6 cells, imaging, high-content screening, mouse beta cells (AID 1628); format: functional
[19] = NIH-3T3 fibroblast cytotoxicity, dose response, cytotoxicity control, cell-based, fluorescence, Alamar Blue, secondary assay (AID 2327); format: functional;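 also: NIH-3T3 mouse fibroblasts cultured with fluconazole at 8 µg/mL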
Cysteine protease ATG4B = Cysteine protease ATG4B (Homo sapiens, UniProt Q9Y4P1); format: functional;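 also: Fluorescence-based dose-response confirmation assay measuring inhibition of ATG4B activity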
Sequence of Cysteine protease ATG4B (Q9Y4P1 whole entry): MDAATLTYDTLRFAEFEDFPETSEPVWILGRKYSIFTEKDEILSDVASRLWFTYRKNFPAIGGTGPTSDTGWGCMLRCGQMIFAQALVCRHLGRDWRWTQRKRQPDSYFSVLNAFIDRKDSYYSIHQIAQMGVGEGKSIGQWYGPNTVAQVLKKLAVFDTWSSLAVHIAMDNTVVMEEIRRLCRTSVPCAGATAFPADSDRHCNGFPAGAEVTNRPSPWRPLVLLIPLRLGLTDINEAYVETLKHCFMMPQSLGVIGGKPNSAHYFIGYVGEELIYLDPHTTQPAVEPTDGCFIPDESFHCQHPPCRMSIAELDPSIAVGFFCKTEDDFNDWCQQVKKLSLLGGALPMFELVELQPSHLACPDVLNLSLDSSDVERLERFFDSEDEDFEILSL

Phospholipase A2 = Phospholipase A2 (Homo sapiens, UniProt P04054); format: functional;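 also: confirmatory dose-response counterscreen on phospholipase A2, testing hits that came from an ultra-high-throughput screen for ATG4B inhibitors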
Sequence of Phospholipase A2 (P04054 whole entry): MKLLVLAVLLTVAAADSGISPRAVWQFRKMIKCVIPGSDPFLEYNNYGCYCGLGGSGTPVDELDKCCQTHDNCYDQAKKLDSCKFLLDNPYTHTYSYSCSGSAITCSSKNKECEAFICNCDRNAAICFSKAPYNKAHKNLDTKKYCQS

Genome polyprotein = Genome polyprotein (dengue virus type 2, UniProt P29990); assay: Dengue-2 NS5 methyltransferase inhibitors, primary screen, biochemical, confirmation dose response (AID 588689); format: functional
Aminopeptidase N = biological target: T2, Aminopeptidase N (Plasmodium falciparum FcB1/Columbia, UniProt O96935); assay: P. falciparum M1AAP inhibitors, biochemical, fluorogenic H-Leu-NHMec substrate, 1536-well (AID 1445); set-up: species or system Plasmodium falciparum 3D7, 3D7
T2 sequence (O96935 whole entry): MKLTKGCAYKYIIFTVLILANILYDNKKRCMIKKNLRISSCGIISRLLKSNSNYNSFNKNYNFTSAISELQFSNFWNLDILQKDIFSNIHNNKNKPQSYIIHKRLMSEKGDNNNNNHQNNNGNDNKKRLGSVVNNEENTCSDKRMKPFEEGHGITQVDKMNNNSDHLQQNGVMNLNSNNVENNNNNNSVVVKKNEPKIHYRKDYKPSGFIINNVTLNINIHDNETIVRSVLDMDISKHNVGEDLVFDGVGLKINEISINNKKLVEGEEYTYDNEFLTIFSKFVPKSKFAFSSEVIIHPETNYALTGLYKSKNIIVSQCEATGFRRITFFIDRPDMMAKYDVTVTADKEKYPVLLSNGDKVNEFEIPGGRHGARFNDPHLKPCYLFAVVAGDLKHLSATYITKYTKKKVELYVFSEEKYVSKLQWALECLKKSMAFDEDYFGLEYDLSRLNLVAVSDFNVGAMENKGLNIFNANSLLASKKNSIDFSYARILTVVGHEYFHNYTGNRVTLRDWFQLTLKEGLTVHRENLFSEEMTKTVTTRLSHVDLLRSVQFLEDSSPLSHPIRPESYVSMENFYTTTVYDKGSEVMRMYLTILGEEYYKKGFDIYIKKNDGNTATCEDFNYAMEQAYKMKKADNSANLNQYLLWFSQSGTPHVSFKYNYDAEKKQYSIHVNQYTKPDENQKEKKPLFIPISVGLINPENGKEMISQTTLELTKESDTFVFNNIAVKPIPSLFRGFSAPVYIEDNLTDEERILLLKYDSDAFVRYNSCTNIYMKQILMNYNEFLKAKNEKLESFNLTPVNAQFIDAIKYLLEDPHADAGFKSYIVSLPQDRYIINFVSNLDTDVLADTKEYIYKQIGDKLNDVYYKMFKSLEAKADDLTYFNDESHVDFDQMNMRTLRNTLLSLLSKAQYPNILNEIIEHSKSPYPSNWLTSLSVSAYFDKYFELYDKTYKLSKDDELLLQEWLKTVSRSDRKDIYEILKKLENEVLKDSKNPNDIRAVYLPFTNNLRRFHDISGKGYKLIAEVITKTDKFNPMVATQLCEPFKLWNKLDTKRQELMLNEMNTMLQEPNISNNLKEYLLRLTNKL

[20] = biological target: Induced myeloid leukemia cell differentiation protein Mcl-1 (Homo sapiens, UniProt Q07820); format: functional
Sequence of Induced myeloid leukemia cell differentiation protein Mcl-1 (Q07820 whole entry): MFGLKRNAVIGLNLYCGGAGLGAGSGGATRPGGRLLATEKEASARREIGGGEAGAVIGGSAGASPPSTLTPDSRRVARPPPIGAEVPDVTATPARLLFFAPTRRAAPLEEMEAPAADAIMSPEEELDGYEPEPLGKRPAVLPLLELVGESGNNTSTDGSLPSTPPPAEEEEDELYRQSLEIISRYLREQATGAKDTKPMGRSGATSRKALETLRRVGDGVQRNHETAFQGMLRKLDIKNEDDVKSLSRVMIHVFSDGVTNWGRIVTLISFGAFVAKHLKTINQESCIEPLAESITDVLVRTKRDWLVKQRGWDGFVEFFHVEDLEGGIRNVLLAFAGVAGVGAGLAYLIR

Keap1/Nrf2 = Keap1/Nrf2 (Homo sapiens, UniProt Q14145); assay: Keap1-Nrf2 protein-protein interaction inhibitors, dose response, biochemical, fluorescence polarization, cherry-picked samples (AID 588683)
Sequence of Keap1/Nrf2 (Q16236 whole entry): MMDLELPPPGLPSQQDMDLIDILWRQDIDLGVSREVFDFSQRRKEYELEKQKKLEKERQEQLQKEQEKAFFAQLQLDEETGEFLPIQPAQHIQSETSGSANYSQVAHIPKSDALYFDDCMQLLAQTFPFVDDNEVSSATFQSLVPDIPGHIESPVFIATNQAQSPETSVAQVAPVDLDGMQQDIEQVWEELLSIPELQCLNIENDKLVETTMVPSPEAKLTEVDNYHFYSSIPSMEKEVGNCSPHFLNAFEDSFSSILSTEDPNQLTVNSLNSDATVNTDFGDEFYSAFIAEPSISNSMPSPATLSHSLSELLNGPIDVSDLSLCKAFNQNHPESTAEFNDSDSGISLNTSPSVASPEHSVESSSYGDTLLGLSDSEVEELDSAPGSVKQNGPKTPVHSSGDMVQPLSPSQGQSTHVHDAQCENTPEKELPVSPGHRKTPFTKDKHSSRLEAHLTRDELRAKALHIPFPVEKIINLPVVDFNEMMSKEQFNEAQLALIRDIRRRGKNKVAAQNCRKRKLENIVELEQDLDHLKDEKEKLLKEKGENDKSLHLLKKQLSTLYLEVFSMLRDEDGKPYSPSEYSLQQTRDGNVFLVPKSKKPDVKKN
Sequence of Keap1/Nrf2 (Q14145 whole entry): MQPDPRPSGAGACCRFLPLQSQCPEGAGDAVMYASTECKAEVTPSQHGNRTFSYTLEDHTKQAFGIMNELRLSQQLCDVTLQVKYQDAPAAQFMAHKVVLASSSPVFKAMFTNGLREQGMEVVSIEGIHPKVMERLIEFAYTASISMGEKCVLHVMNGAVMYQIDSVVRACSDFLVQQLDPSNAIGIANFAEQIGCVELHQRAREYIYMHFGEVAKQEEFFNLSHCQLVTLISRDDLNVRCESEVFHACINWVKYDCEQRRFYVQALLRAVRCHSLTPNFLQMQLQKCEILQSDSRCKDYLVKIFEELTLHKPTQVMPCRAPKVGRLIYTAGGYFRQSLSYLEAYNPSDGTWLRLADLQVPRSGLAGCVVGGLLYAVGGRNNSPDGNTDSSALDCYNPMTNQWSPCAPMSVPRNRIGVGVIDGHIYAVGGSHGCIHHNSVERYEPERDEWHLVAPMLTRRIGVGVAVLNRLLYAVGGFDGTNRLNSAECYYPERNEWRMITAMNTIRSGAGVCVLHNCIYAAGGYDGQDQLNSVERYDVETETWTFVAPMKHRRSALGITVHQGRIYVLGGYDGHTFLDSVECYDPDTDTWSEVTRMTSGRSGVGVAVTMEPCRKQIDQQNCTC

CNC(=S)N1CCN(c2c(F)cc3c(=O)c(C(=O)O)cn(C4CC4)c3c2OC)CC1C (stereo not given)
EC50 (Streptococcus): 0.229 µM (active) | EC50 [1]: 0.179 µM (active) | IC50 (cells): 2.57 µM (active) | AC50 (Escherichia coli): 1.44 µM (active)

COC(=O)C1C(O)C(C)C(O)C(C)(O)/C=C\C=C(/C)C(=O)Nc2c(C)c(OC(C)=O)c3c(c2O)C(=O)C(C)=C2OCOC(=C23)/C(C)=C/C(C)(O)C(O)C(C)C1O (stereo not given)
AC50 (Escherichia coli): > 150 µM (inactive)

CCN1CCN(CCCNC(=O)c2ccc3c(Cl)c4c(nc3c2)CCCC4)CC1
AC50 (A-375 [2]): > 11 µM (active) | CC50 (Vero [3]): 18.7 µM (active) | AC50 (A-375 [4]): > 11 µM (active)

NC(Cc1ccc(C(F)(F)F)cc1)c1csc(NC(=O)Nc2ccccc2Oc2ccccc2)n1 (stereo not given)
EC50 (HEK293 [5]): > 59.6 µM (inactive) | EC50 (HEK293 [6]): > 59.6 µM (inactive)

CC(C)NC(=S)N/N=C1\CCCCC1C1CCCCC1 (stereo not given)
IC50 [7]: > 40 µM (not active) | EC50 (Beta-galactosidase): > 40 µM (inactive)

COc1ccc(/C=C/c2nc3ccccc3n2Cc2ccccc2OC)cc1
AC50 (CAAX prenyl protease 2): 3.33 µM (active) | AC50 (Trypsin): 3.43 µM (active) | EC50 [8]: > 60 µM (inconclusive) | EC50 [9]: 0.663 µM (active)

Cc1nc2ccccn2c1C(=O)/C=C/c1cccc([N+](=O)[O-])c1
IC50 (Vero [10]): 17.2 µM (active) | AC50 (INS1): 8.14 µM (active) | IC50 [11]: > 80 µM (inactive) | AC50 [12]: 56.9 µM (active) | AC50 (A-375 [2]): > 35 µM (active) | CC50 (Vero [13]): 5.91 µM (active) | CC50 (Vero [3]): 24 µM (active) | AC50 (A-375 [4]): > 35 µM (active) | AC50 [14]: 6.9 µM (active) | AC50 [15]: 26.6 µM (active)

Cc1ccc(C(C)C)c(OCc2n[n+](CC(=O)c3ccc(OC(F)F)cc3)c3n2CCCCC3)c1
IC50 [16]: 1.13 µM (active) | AC50 (INS1): 3.09 µM (active) | EC50 [17]: 0.74 µM (active) | IC50 [18]: 1.27 µM (active) | AC50 (A-375 [4]): 20.1 µM (active) | EC50 [19]: > 150 µM (inactive) | AC50 [14]: 9.17 µM (active) | AC50 [15]: 5.68 µM (active)

COc1ccc(N2C(=O)c3ccccc3NC23CCC(C)CC3)cc1 (stereo not given)
IC50 (Cysteine protease ATG4B): 21.1 µM (inactive) | IC50 (Phospholipase A2): 7.99 µM (active)

O=C1Nc2ccc(Br)cc2/C1=C1/SC(=S)N(NS(=O)(=O)c2ccccc2)C1=O
IC50 (Genome polyprotein): 23.6 µM (active) | IC50 (Aminopeptidase N): < 1 µM (active) | IC50 [20]: 3 µM (not active) | AC50 (Keap1/Nrf2): 12.2 µM (active)
